Reference: patent publication US5643927A, “4-p-fluorobenzoyl-1-piperidinyl-propoxy-chromen-4-one derivatives, their preparation and their use in the treatment of psychosis and schizophrenia” (Ferrer Internacional, S.A., priority 1994, dated 1997)
Structures can show the parent of a compound that is named as a salt. Where two headings read alike, the source gives them in different places.

Experiments:
D2 receptors = D2 receptors (Rattus norvegicus, UniProt P61169); assay: biochemical; assay type: binding
Experimental: (§1) Specific binding to σ, D2, D3, 5H2 and 5HT1a receptors has been tested as follows:
D2 receptors: A 2-nM solution of radioactive spiperone ([^3 H]spiperone), which acts as a specific ligand, was incubated with the membrane corresponding to 20 mg of rat striatum for 20 min at 35° C. buffered at pH 7.4 with Tris.HCl. The non-specific binding was then determined by addition of a micromolar concentration of unlabelled spiperone. […] After the incubation was completed, the sample was filtered through a glass fiber filter and then washed three times with Tris.HCl buffer. The amount of receptor-bound radioactivity was retained on the membrane and determined by liquid scintillation counting.
(§2) Values are expressed as IC50 in molar concentrations.

5HT2 receptors = target: T1, 5HT2 receptors (Rattus norvegicus, UniProt P14842); assay: 5HT2 receptor binding ([3H]ketanserin displacement); settings: for IC50: [3H]ketanserin 0.5 nM, rat cortex membrane, 30 min, 35° C., pH 7.4; for specificity over 5HT2 receptors versus D2 receptors (in words): D2 /5HT2 ratio
T1 construct: membrane corresponding to 1 mg of rat cortex; from tissue; host or cells: rat cortex membranes
Experimental: as §1
5HT2 receptors: A 0.5 nM solution of radioactive ketanserin ([^3 H]ketanserin), which acts as a specific ligand, was incubated with the membrane corresponding to 1 mg of rat cortex for 30 min at 35° C. buffered at pH 7.4 with Tris.HCl. […] After the incubation was completed, the sample was filtered through a glass fiber filter and then washed three times with Tris.HCl buffer. The amount of receptor-bound radioactivity was retained on the membrane and determined by liquid scintillation counting.
as §2

σ receptors = σ receptors (Cavia porcellus, UniProt Q60492); assay: biochemical; assay type: binding
Experimental: as §1
σ receptors: A 2-nM solution of radioactive 3-PPP ((+) [^3 H]3-[3-hydroxyphenyl]-N-(1-propyl)-piperidine), which acts as a specific ligand, was incubated with the membrane corresponding to 40 mg of guinea-pig total brain for 90 min at 25° C. buffered at pH 8.5 with Tris.HCl. Thus, total binding of ligand to membranes was attained. Non-specific binding was then determined by adding a micromolar concentration of unlabelled 3-PPP. […] After the incubation was completed, the samples were filtered through a glass fiber filter and then washed three times with Tris.HCl buffer. The amount of receptor-bound radioactivity was retained on the membrane and determined by liquid scintillation counting.
as §2

D3 receptors = target: T2, D3 receptors (Homo sapiens, UniProt P35462); assay: biochemical; assay type: binding
T2 construct: purchased RBI; host or cells: mouse fibroblasts (CCL 1,3)
Experimental: as §1
D3 receptors: A 0.1 nM solution of radioactive YM-0951 ([^3 H]YM-0951), which acts as a specific ligand, was incubated with the membrane provided by RBI obtained from mouse fibroblasts (CCL 1,3) for 15 min at 37° C., buffered at pH 7.4 with Tris.HCl. […] After the incubation was completed, the sample was filtered through a glass fiber filter and then washed three times with Tris.HCl buffer. The amount of receptor-bound radioactivity was retained on the membrane and determined by liquid scintillation counting.
as §2

5HT1a receptors = target: T3, 5HT1a receptors (Rattus norvegicus, UniProt P19327); assay: biochemical; assay type: binding
T3 sequence (P19327 1-422): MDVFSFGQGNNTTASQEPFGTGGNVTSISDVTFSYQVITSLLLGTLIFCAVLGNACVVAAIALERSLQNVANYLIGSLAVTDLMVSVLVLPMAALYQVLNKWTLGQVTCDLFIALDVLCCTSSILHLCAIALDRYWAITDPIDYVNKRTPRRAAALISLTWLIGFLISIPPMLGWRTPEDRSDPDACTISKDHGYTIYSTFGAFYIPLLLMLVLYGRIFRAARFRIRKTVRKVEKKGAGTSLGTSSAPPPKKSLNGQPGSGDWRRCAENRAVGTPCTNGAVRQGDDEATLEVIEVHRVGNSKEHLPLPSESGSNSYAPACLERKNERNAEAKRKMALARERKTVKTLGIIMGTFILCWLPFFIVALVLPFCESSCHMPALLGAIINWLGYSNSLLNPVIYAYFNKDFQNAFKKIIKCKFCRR
Experimental: as §1
5HT1a receptors: A 1 nM solution of radioactive […], which acts as a specific ligand, was incubated with the membrane corresponding to 1 mg of rat cortex for 20 min at 35° C. buffered at pH 7.4 with Tris.HCl. Non-specific binding was then determined by addition of a 20 micromolar concentration of unlabelled buspirone. […] After the incubation was completed, the sample was filtered through a glass fiber filter and then washed three times with Tris.HCl buffer. The amount of receptor-bound radioactivity was retained on the membrane and determined by liquid scintillation counting.
as §2

[1] = system: apomorphine-induced climbing behaviour; assay: Test (C): Inhibition of apomorphine-induced climbing behaviour; assay type: in vivo, Male Swiss mice; settings: Mus musculus, 1 h; oral, mice; apomorphine 1 mg/kg s.c. after 60 min; climbing assessed after further 60 min
Experimental: One week prior to experiment, animals were kept in our facilities at a temperature of 20°-22° C. and 12/12 h light-dark cycle, and had free access to food and water. Two hours prior to experiment, the animals were placed in individual cages without access to food.
Two additional assessments were performed at 10-min intervals.
The walls of the box were made of translucent methacrylate except one of the lateral surfaces (7.5 cm wide) which was a 3-mm wire mesh. […] If an animal keeps several positions within the 2-min observation, the seconds elapsed in each position will be recorded. Finally, mean scoring was calculated.

[2] = catalepsy in rats after oral administration (extrapyramidal effects); assay type: in vivo; settings: rat, in vivo, po
catalepsy = assay: as above; assay type: in vivo; settings: rats, oral
[3] = animal pharmacological tests (overall statement); settings: in vivo
[4] = [3H]spiperone 2 nM, rat striatum membrane, 20 min, 35° C., pH 7.4, read-out: IC50 (M) D2
[5] = [3H]3-PPP 2 nM, guinea-pig total brain membrane, 90 min, 25° C., pH 8.5, read-out: IC50 (M) σ
[6] = [3H]YM-0951 0.1 nM, membrane from mouse fibroblasts (CCL 1,3), 15 min, 37° C., pH 7.4, read-out: IC50 (M) D3
[7] = [3H]5-OH-DPAT 1 nM, rat cortex membrane, 20 min, 35° C., pH 7.4, read-out: IC50 (M) 5HT1A

D2 receptors, sequence (P61169 whole entry): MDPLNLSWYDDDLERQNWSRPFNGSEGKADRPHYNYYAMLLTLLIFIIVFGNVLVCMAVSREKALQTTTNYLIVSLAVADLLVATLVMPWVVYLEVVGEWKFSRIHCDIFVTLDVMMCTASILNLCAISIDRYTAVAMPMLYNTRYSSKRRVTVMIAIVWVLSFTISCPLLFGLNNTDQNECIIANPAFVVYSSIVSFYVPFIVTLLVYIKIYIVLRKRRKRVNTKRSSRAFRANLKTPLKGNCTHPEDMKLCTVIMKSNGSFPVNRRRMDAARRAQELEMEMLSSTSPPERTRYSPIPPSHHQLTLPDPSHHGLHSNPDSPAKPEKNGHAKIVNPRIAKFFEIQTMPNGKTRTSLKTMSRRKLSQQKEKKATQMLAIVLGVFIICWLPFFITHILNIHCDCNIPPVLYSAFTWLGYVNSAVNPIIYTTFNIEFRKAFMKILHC
T2 sequence (P35462 whole entry): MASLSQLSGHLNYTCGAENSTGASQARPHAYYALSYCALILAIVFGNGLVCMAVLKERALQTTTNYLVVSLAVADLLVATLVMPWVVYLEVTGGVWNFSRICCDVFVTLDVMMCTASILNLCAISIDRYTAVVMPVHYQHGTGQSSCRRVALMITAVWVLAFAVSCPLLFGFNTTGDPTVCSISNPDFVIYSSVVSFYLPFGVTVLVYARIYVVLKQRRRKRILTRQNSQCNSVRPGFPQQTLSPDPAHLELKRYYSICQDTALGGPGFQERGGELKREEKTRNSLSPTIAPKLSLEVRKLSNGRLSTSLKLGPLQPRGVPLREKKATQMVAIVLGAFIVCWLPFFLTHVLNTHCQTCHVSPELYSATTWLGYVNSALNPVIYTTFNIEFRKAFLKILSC
T1 sequence (P14842 whole entry): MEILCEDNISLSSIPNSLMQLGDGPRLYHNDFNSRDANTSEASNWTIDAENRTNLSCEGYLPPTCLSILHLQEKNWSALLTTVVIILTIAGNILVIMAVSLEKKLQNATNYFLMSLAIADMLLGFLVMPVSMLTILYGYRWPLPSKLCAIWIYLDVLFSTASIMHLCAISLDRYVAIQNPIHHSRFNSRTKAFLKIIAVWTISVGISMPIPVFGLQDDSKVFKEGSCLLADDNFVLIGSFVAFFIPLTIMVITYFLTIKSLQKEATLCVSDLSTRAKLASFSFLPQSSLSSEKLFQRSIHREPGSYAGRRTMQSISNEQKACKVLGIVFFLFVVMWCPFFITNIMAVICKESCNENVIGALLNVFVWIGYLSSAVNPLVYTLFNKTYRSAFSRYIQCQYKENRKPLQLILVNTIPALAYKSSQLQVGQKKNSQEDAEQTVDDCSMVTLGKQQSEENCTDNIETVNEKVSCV
σ receptors, sequence (Q60492 whole entry): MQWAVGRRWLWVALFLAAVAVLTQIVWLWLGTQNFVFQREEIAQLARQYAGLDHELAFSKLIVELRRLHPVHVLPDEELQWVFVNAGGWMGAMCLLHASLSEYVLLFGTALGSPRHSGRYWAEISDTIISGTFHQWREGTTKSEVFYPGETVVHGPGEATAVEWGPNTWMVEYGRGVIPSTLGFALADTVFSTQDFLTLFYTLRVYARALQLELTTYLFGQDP

Compound | IC50 (D2 receptors; [4]) [M] | IC50 (5HT2 receptors) [nM] | IC50 (σ receptors; [5]) [M] | IC50 (D3 receptors; [6]) [M] | IC50 (5HT1a receptors; [7]) [M] | further results
OC(CCCN1CCN(c2ncc(F)cn2)CC1)c1ccc(F)cc1 (centres unmarked) [BMY-14802, reference compound] | 1.59e-05 | 1150 |  |  |  | 
Cl.O=C(c1ccc(F)cc1)C1CCN(CCCOc2ccc3c(=O)ccoc3c2)CC1 [Example 1, 7-[3-(4-p-fluorobenzoyl-1-piperidinyl)propoxy]chromen-4-one hydrochloride] | 4.36e-07 | 17.1 | 1.46e-08 | 6.88e-08 | 1.56e-06 | activity on D3 receptors (in words) (D3 receptors; compared with 7-OH-DPAT): active on D3 receptors in the same order as 7-OH-DPAT; specificity over 5HT2 receptors versus D2 receptors (in words) (5HT2 receptors; hydrochloride): the most specific over 5HT2 receptors versus D2 receptors; specificity over 5HT2 receptors versus D2 receptors (in words) (5HT2 receptors; listed as Ex. 1, hydrochloride): surpasses BMY-14802 and risperidone in D2 /5HT2 ratio
Cc1cc(=O)c2ccc(OCCCN3CCC(C(=O)c4ccc(F)cc4)CC3)cc2o1 [Example 2, 7-[3-(4-p-fluorobenzoyl-1-piperidinyl)propoxy]-2-methyl-chromen-4-one hydrochloride] | 3.74e-07 | 56.6 | 7.99e-07 | 8.55e-07 | 1.57e-06 | 
Cc1coc2cc(OCCCN3CCC(C(=O)c4ccc(F)cc4)CC3)ccc2c1=O [Example 3, 7-[3-(4-p-fluorobenzoyl-1-piperidinyl)propoxy]-3-methyl-chromen-4-one hydrochloride] |  | 82 |  |  |  | IC50 (σ receptors): 2.43e-07 M; IC50 (D2 receptors): 1.29e-07 M; IC50 (D3 receptors): 1.94e-07 M; IC50 (5HT1a receptors): 7.64e-07 M
Cl.O=C(c1ccc(F)cc1)C1CCN(CCCOc2ccc3c(=O)c(CO)coc3c2)CC1 [Example 4, 3-Hydroxymethyl-7-[3-(4-p-fluorobenzoyl-1-piperidinyl)propoxy]-chromen-4-one hydrochloride] |  | 47.4 |  |  |  | D2 /5HT2 (5HT2 receptors; ratio of IC50 D2 to IC50 5HT2): 4.01; ED50 [1]: 3.2 mg/kg; TD50 [2]: 15 mg/kg; extrapyramidal effects (in words) (catalepsy): did not show very important extrapyramidal effects; activity in animal pharmacological tests (in words) [3]: very active in animal pharmacological tests
